In patent publication EP4818157A1, “N-SUBSTITUTED CYCLIC AMIDE COMPOUND” (Kissei Pharmaceutical Co., Ltd., priority 2023, dated 2025) one finds IC50 data, which are given here for 29 compounds.

SMILES strings stand for the structures. Some results are limits rather than exact numbers.

T1 sequence (P16473 21-764): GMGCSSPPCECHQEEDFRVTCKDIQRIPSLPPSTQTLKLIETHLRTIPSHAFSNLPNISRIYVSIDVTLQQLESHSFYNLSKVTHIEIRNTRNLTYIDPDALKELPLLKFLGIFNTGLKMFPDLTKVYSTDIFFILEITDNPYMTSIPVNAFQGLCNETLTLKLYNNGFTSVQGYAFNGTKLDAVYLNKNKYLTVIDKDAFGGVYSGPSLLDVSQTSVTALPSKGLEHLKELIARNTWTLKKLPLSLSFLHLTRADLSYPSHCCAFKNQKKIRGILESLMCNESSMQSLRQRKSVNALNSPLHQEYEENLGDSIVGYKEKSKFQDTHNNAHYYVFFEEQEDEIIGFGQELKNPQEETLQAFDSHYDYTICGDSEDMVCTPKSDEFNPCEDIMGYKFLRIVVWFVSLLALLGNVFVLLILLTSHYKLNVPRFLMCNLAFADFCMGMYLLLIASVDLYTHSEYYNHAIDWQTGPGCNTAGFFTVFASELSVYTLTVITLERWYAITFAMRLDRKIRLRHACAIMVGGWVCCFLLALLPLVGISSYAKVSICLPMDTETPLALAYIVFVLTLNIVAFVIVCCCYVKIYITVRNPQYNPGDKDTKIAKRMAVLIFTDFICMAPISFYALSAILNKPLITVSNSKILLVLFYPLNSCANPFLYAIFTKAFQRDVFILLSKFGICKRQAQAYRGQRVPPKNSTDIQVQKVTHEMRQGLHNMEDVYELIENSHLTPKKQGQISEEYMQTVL

This assay addresses T1, human TSHR (Homo sapiens, UniProt P16473).
T1 construct: expressed in transfected cells
Briefly: Measurement of antagonist activity using TSH-induced cAMP production in human TSHR-stably expressing CHO cells. The settings on record: human TSH final concentration 50 ng/mL. In kind it is cell-based. As to the method:
Measurement of Antagonist Activity Using TSH-induced cAMP Production in Human TSHR-stably Expressing CHO Cells as an Indicator
A gene sequence of human TSHR (reference number NM_000369.2) was inserted into a multiple cloning site of pcDNA3.1(+). The prepared plasmid vector was introduced into CHO cells by a lipofection method to establish human TSHR stably expressing CHO cells. The obtained cells were seeded in a poly-D-lysine-coated 96-well plate at 5 x 10^4 cells/well, and cultured for 1 day in F12 medium containing 10% FBS, 400 µg/mL G418, 50 U/mL penicillin, and 50 µg/mL streptomycin under conditions of 37°C and 5% CO2. After removing a medium, the cells were washed twice with 100 µL per well of an assay buffer (Hanks' Balanced Salt Solution containing 20 mM HEPES and 1 mM IBMX). 30 µL of an assay buffer containing a test compound was added to a well, and the mixture was incubated at room temperature for 15 minutes. Next, 30 µL of an assay buffer containing human TSH (R&D Systems, Inc., final concentration 50 ng/mL) was added, and the mixture was incubated at 37°C for 1 hour. The supernatant was removed, and Lysis and Detection Buffer 2 (Cisbio) was added to prepare a cell lysate by incubating at room temperature for 1 hour. According to the instructions for use of a cAMP Gs HiRange kit (Cisbio), a cell lysate was reacted with d2-labeled cAMP and an anti-cAMP Europium Cryptate labeled antibody (Cisbio) in a 384-well white microplate. Next, a fluorescence intensity ratio (measurement wavelengths 665 nm/620 nm) was measured using a multiplate reader (PHERAstar FSX, BMG LABTECH Japan). A fluorescence intensity ratio of each sample was converted into a cAMP content using a standard curve. A cAMP content was converted into a percentage of a control value, and a cAMP production rate was calculated. Using Prism (Graph Pad Software Inc.), a cAMP production rate was plotted against a test compound concentration, and an IC50 value was calculated. The IC50 of each test compound is shown in the above tables. In the tables, IC50 < 3.0 µM was denoted as A, and 3.0 µM ≤ IC50 < 30 µM was denoted as B. The case where activity was observed but an IC50 value could not be calculated was denoted as C.
In general terms: Changes in cAMP serve as a functional read-out for many G protein-coupled receptors.
Broadly, the IC50 is the concentration that gives 50% inhibition. Read a high IC50 as lower potency. On to `CN(C)Cc1cccc2c1N(Cc1cc(C(F)(F)F)ccc1F)C(=O)[C@H](NC(N)=O)C2` [Example F-3, (R)-1-(8-((dimethylamino)methyl)-1-(2-fluoro-5-(trifluoromethyl)benzyl)-2-oxo-1,2,3,4-tetrahydroquinolin-3-yl)urea], for which the IC50 fell in the range of 3 to 30 µM.

`NC(=O)N[C@@H]1Cc2c(F)cc(F)cc2N(Cc2cc(C(F)F)ccc2F)C1=O` [Example C-17, (R)-1-(1-(5-(difluoromethyl)-2-fluorobenzyl)-5,7-difluoro-2-oxo-1,2,3,4-tetrahydroquinolin-3-yl)urea] gave an IC50 of less than 3 µM. `C[C@@H]1CC[C@@H](NC(N)=O)C(=O)N1Cc1cc(C#CC2CC2)ccc1F` (relative stereo) [Example A-10, 1-((3R^*,6R^*)-1-(5-(cyclopropylethynyl)-2-fluorobenzyl)-6-methyl-2-oxopiperidin-3-yl)urea] registered an IC50 of 3 to 30 µM. For `C[C@@H]1CC[C@@H](NC(N)=O)C(=O)N1Cc1cccc(Oc2ccccc2)c1` (relative stereo) [Example A-6, 1-((3R^*,6R^*)-6-methyl-2-oxo-1-(3-phenoxybenzyl)piperidin-3-yl)urea] the value was 3 to 30 µM; for `NC(=O)NC1CCC2(CC2)N(Cc2cccc(C(F)(F)F)c2)C1=O` (centres unmarked) [Example A-20, 1-(5-oxo-4-(3-(trifluoromethyl)benzyl)-4-azaspiro[2.5]octan-6-yl)urea], 3 to 30 µM; for `N#Cc1ccc2c(c1)N(Cc1cccc(C(F)(F)F)c1)C(=O)[C@H](NC(N)=O)C2` [Example C-8, (R)-1-(7-cyano-2-oxo-1-(3-(trifluoromethyl)benzyl)-1,2,3,4-tetrahydroquinolin-3-yl)urea], 3 to 30 µM. For `C[C@@H]1CC[C@@H](NC(N)=O)C(=O)N1Cc1cc(Cc2ccccc2)ccc1F` (relative stereo) [Example A-5, 1-((3R^*,6R^*)-1-(5-benzyl-2-fluorobenzyl)-6-methyl-2-oxopiperidin-3-yl)urea] the value was less than 3 µM. As to `NC(=O)N[C@@H]1Cc2ccc(C(F)F)cc2N(Cc2cc(C(O)(C(F)(F)F)C(F)(F)F)ccc2F)C1=O` [Example C-20, (R)-1-(7-(difluoromethyl)-1-(2-fluoro-5-(1,1,1,3,3,3-hexafluoro-2-hydroxypropan-2-yl)benzyl)-2-oxo-1,2,3,4-tetrahydroquinolin-3-yl)urea], the IC50 was less than 3 µM. For `Cc1ccc(NC(=O)N2CCC2)c(=O)n1Cc1cc(C(F)(F)F)cc(Cl)c1F` [Example E-9, N-(1-(3-chloro-2-fluoro-5-(trifluoromethyl)benzyl)-6-methyl-2-oxo-1,2-dihydropyridin-3-yl)azetidine-1-carboxamide] the value was less than 3 µM; for `NC(=O)Nc1ccc(CN2CCCC2)n(Cc2cc(C(F)(F)F)ccc2F)c1=O` [Example E-6, 1-(1-(2-fluoro-5-(trifluoromethyl)benzyl)-2-oxo-6-(pyrrolidin-1-ylmethyl)-1,2-dihydropyridin-3-yl)urea], less than 3 µM. The same measure for `NC(=O)N[C@@H]1C[C@H]2C[C@H]2N(Cc2cc(C(F)(F)F)ccc2F)C1=O` (relative stereo) [Example A-21, 1-((1R^*,4R^*,6S^*)-2-(2-fluoro-5-(trifluoromethyl)benzyl)-3-oxo-2-azabicyclo[4.1.0]heptan-4-yl)urea]: less than 3 µM; for `NC(=O)N[C@@H]1CC[C@@H](C(F)(F)F)N(Cc2cc(OC(F)(F)C(F)F)ccc2F)C1=O` [Example A-16, 1-((3R,6S)-1-(2-fluoro-5-(1,1,2,2-tetrafluoroethoxy)benzyl)-2-oxo-6-(trifluoromethyl)piperidin-3-yl)urea]: less than 3 µM. The same measure for `NC(=O)N[C@@H]1CC[C@@H](C(F)(F)F)N(Cc2cc(CCC3CC3)ccc2F)C1=O` [Example D-2, 1-((3R,6S)-1-(5-(2-cyclopropylethyl)-2-fluorobenzyl)-2-oxo-6-(trifluoromethyl)piperidin-3-yl)urea]: less than 3 µM; for `CCOC[C@@H]1CC[C@@H](NC(N)=O)C(=O)N1Cc1cc(C(F)(F)F)ccc1F` [Example D-7, 1-((3R,6S)-6-(ethoxymethyl)-1-(2-fluoro-5-(trifluoromethyl)benzyl)-2-oxopiperidin-3-yl)urea]: less than 3 µM. In the case of `CC(c1cc(C(F)(F)F)ccc1F)N1C(=O)[C@H](NC(N)=O)CC[C@H]1C(F)(F)F` (stereo partly drawn) [Example A-22, 1-((3R,6S)-1-(1-(2-fluoro-5-(trifluoromethyl)phenyl)ethyl)-2-oxo-6-(trifluoromethyl)piperidin-3-yl)urea], the IC50 was more than 30 µM. For `C=CCc1ccc(NC(N)=O)c(=O)n1Cc1cc(C(F)(F)F)cc(Cl)c1F` [Example E-5, 1-(6-allyl-1-(3-chloro-2-fluoro-5-(trifluoromethyl)benzyl)-2-oxo-1,2-dihydropyridin-3-yl)urea] the value was less than 3 µM.

As to `C[C@@H]1CC[C@@H](NC(N)=O)C(=O)N1Cc1cc(C#Cc2ccncc2)ccc1F` (relative stereo) [Example A-8, 1-((3R^*,6R^*)-1-(2-fluoro-5-(pyridin-4-ylethynyl)benzyl)-6-methyl-2-oxopiperidin-3-yl)urea], the IC50 was less than 3 µM.

`O=C(N[C@@H]1CC[C@@H](C(F)F)N(Cc2cc(C(F)(F)F)ccc2F)C1=O)C1CC1` [Example A-28, N-((3R,6S)-6-(difluoromethyl)-1-(2-fluoro-5-(trifluoromethyl)benzyl)-2-oxopiperidin-3-yl)cyclopropanecarboxamide] registered an IC50 of less than 3 µM. The same measure for `NC(=O)N[C@@H]1Cc2ccsc2N(Cc2cc(C(F)(F)F)ccc2F)C1=O` [Example F-4, (R)-1-(7-(2-fluoro-5-(trifluoromethyl)benzyl)-6-oxo-4,5,6,7-tetrahydrothieno[2,3-b]pyridin-5-yl)urea]: less than 3 µM; for `CC(=O)NC[C@@H]1CC[C@@H](NC(N)=O)C(=O)N1Cc1cc(C(F)(F)F)ccc1F` [Example D-8, N-(((2S,5R)-1-(2-fluoro-5-(trifluoromethyl)benzyl)-6-oxo-5-ureidopiperidin-2-yl)methyl)acetamide]: more than 30 µM. The same measure for `C[C@H]1CC[C@@H](NC(N)=O)C(=O)N1CCc1cccc(C(F)(F)F)c1` (relative stereo) [Example A-23, 1-((3R^*,6S^*)-6-methyl-2-oxo-1-(3-(trifluoromethyl)phenethyl)piperidin-3-yl)urea]: 3 to 30 µM; for `CC(c1cc(C(F)(F)F)ccc1F)N1C(=O)[C@H](NC(N)=O)Cc2ccc(F)cc21` (stereo partly drawn) [Example C-24, 1-((3R)-7-fluoro-1-(1-(2-fluoro-5-(trifluoromethyl)phenyl)ethyl)-2-oxo-1,2,3,4-tetrahydroquinolin-3-yl)urea]: 3 to 30 µM; for `CC(C)(C)OC(=O)NCCc1cc(NC(N)=O)c(=O)n(Cc2cc(C(F)(F)F)ccc2F)c1` [Example B-3, tert-butyl (2-(1-(2-fluoro-5-(trifluoromethyl)benzyl)-6-oxo-5-ureido-1,6-dihydropyridin-3-yl)ethyl)carbamate]: less than 3 µM. In turn, `Cc1cnc(NC(N)=O)c(=O)n1Cc1cc(C(F)(F)F)cc(Cl)c1F` [Example B-9, 1-(4-(3-chloro-2-fluoro-5-(trifluoromethyl)benzyl)-5-methyl-3-oxo-3,4-dihydropyrazin-2-yl)urea] had an IC50 of 3 to 30 µM. The same measure for `NC(=O)N[C@@H]1CC[C@@H](CN2CCCC2)N(Cc2cc(C(F)(F)F)ccc2F)C1=O` [Example D-5, 1-((3R,6S)-1-(2-fluoro-5-(trifluoromethyl)benzyl)-2-oxo-6-(pyrrolidin-1-ylmethyl)piperidin-3-yl)urea]: more than 30 µM; for `NC(=O)Nc1cc(CCC(=O)O)cn(Cc2cc(C(F)(F)F)ccc2F)c1=O` [Example B-2, 3-(1-(2-fluoro-5-(trifluoromethyl)benzyl)-6-oxo-5-ureido-1,6-dihydropyridin-3-yl)propanoic acid]: more than 30 µM; for `Cc1cccc(CN2C(=O)[C@H](NC(N)=O)Cc3ccccc32)c1` [Example C-1, (R)-1-(1-(3-methylbenzyl)-2-oxo-1,2,3,4-tetrahydroquinolin-3-yl)urea]: 3 to 30 µM. For `N#Cc1cccc(CN2C(=O)[C@H](NC(N)=O)Cc3ccccc32)c1` [Example C-2, (R)-1-(1-(3-cyanobenzyl)-2-oxo-1,2,3,4-tetrahydroquinolin-3-yl)urea] the value was more than 30 µM; for `Cc1ccc2c(c1)N(Cc1cc(C(F)F)ccc1F)C(=O)[C@H](NC(N)=O)C2` [Example C-13, (R)-1-(1-(5-(difluoromethyl)-2-fluorobenzyl)-7-methyl-2-oxo-1,2,3,4-tetrahydroquinolin-3-yl)urea], less than 3 µM.
